Assay results as given in article PMC8427794 (ACS Omega, 2021).
Like-named read-outs stand apart in the source and are kept apart here.

Key:
mGlu2 receptor [1] = biological target: T1, mGlu2 receptor (Homo sapiens, UniProt Q14416); assay: [35S]GTPγS binding assay, agonist mode; format: biochemical; settings: for Emax: read-out: mGlu2 Ago EMAX ±SD
[2] = Human liver microsomal stability; format: in vitro ADME; settings: incubation with microsomes for 15 min at 5 μM
[3] = Rat liver microsomal stability; format: in vitro ADME; settings: incubation with microsomes for 15 min at 5 μM
mGlu1 = mGlu1 (Homo sapiens, UniProt Q13255); assay: Selectivity panel, mGlu1 Ca2+ assay; format: cell-based
mGlu3 = mGlu3 (Homo sapiens, UniProt Q14832); assay: Selectivity panel, mGlu3 Ca2+ assay; format: cell-based
Sequence of mGlu3 (Q14832 23-879): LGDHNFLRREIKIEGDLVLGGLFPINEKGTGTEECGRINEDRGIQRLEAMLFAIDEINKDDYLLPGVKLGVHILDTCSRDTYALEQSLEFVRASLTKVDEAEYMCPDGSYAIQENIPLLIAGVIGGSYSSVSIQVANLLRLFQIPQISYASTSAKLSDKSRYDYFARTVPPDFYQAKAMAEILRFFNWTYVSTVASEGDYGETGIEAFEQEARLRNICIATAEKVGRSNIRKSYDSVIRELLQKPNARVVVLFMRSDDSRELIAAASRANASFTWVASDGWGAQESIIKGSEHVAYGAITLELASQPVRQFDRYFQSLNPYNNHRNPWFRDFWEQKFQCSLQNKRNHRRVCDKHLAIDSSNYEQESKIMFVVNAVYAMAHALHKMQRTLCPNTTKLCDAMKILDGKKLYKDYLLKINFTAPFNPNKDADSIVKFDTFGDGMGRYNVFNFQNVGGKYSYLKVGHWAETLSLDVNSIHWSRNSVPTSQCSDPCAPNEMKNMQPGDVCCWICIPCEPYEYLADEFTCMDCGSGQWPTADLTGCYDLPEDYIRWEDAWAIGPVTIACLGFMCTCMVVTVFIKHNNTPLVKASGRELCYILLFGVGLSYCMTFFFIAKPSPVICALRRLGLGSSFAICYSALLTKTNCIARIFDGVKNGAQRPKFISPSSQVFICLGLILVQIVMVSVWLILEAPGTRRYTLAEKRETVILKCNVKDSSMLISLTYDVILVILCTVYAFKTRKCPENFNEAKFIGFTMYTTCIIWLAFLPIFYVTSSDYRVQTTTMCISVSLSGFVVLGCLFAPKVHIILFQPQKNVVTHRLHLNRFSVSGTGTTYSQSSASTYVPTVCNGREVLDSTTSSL

mGlu4 = mGlu4 (Homo sapiens, UniProt Q14833); assay: Selectivity panel, mGlu4 assay; format: cell-based
Sequence of mGlu4 (Q14833 33-912): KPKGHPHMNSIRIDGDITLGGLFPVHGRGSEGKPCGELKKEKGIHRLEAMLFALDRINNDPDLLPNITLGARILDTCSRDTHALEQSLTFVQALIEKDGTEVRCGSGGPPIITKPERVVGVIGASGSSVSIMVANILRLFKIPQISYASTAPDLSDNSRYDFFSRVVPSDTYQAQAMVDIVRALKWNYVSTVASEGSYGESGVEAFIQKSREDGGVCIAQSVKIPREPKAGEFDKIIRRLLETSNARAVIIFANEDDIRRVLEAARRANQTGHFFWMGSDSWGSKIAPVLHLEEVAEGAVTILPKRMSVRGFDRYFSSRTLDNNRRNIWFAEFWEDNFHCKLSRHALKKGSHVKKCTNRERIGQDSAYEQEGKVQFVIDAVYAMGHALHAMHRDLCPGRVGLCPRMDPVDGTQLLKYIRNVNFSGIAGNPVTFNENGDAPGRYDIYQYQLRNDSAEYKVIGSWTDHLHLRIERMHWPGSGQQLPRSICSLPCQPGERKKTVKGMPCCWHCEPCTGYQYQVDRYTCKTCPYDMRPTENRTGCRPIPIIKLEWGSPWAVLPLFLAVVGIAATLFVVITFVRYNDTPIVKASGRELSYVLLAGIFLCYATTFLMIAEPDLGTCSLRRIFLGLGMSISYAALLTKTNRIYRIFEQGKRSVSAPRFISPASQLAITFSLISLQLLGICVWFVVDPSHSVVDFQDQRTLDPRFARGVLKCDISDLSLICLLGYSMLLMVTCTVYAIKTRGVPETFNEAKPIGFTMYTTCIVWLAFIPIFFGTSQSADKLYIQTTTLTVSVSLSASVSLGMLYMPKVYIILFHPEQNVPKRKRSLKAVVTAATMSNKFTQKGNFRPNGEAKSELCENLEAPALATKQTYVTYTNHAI

mGlu5 = mGlu5 (Homo sapiens, UniProt P41594); assay: Selectivity panel, mGlu5 Ca2+ assay; format: cell-based
Sequence of mGlu5 (P41594 21-1212): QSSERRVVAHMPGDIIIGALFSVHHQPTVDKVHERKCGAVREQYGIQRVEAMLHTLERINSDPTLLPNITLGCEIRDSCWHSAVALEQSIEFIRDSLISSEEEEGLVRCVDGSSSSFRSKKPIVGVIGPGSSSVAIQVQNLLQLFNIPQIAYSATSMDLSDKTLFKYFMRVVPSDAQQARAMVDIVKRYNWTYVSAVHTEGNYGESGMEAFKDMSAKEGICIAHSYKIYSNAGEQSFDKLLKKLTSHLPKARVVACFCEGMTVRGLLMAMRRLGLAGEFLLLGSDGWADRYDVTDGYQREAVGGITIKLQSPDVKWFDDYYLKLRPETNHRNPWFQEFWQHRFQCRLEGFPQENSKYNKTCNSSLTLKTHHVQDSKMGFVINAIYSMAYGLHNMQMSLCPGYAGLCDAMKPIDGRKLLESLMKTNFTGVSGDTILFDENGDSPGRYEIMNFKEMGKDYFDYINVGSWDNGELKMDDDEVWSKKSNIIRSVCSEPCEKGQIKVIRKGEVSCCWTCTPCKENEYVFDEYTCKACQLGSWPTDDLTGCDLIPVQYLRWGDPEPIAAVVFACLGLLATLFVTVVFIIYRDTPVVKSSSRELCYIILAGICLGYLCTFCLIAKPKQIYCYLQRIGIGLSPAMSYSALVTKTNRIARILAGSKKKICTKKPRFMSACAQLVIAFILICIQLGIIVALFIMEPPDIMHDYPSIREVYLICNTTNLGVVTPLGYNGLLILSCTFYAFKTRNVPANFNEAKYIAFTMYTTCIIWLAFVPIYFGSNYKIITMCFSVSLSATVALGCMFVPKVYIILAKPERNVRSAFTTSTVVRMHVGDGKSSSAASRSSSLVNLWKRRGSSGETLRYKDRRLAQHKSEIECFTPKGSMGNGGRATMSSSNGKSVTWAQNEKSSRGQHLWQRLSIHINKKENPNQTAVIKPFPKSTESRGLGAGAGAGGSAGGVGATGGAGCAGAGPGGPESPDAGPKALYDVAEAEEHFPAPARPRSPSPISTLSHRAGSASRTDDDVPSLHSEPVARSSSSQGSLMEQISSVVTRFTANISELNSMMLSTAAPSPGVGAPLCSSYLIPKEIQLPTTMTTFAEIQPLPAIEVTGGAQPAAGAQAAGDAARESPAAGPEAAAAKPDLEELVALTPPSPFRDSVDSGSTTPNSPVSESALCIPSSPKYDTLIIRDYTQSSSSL

mGlu6 = mGlu6 (Rattus norvegicus, UniProt P35349); assay: Selectivity panel, mGlu6 [35S]GTPγS binding; format: biochemical
Sequence of mGlu6 (P35349 24-871): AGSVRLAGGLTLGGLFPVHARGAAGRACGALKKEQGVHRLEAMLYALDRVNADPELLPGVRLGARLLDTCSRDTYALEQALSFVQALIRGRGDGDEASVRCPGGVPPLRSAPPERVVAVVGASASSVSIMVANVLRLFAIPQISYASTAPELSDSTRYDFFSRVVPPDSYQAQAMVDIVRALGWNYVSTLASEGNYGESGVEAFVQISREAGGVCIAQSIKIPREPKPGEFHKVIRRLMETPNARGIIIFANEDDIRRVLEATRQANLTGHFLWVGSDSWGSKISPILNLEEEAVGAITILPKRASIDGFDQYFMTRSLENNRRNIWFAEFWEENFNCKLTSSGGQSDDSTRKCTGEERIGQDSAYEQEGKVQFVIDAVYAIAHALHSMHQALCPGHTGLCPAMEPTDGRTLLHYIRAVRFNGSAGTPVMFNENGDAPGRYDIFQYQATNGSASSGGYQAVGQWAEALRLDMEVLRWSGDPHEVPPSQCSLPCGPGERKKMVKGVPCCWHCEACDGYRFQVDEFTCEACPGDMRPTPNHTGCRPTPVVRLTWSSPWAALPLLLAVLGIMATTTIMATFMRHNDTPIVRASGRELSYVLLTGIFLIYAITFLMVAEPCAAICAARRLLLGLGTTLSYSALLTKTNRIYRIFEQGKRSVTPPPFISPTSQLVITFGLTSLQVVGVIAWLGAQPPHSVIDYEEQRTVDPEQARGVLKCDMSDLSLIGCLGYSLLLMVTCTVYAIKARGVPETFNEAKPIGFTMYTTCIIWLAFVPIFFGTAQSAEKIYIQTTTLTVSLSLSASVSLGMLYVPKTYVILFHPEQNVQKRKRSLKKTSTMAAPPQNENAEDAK

mGlu7 = mGlu7 (Homo sapiens, UniProt Q14831); assay: Selectivity panel, mGlu7 Ca2+ assay; format: cell-based
Sequence of mGlu7 (Q14831 35-915): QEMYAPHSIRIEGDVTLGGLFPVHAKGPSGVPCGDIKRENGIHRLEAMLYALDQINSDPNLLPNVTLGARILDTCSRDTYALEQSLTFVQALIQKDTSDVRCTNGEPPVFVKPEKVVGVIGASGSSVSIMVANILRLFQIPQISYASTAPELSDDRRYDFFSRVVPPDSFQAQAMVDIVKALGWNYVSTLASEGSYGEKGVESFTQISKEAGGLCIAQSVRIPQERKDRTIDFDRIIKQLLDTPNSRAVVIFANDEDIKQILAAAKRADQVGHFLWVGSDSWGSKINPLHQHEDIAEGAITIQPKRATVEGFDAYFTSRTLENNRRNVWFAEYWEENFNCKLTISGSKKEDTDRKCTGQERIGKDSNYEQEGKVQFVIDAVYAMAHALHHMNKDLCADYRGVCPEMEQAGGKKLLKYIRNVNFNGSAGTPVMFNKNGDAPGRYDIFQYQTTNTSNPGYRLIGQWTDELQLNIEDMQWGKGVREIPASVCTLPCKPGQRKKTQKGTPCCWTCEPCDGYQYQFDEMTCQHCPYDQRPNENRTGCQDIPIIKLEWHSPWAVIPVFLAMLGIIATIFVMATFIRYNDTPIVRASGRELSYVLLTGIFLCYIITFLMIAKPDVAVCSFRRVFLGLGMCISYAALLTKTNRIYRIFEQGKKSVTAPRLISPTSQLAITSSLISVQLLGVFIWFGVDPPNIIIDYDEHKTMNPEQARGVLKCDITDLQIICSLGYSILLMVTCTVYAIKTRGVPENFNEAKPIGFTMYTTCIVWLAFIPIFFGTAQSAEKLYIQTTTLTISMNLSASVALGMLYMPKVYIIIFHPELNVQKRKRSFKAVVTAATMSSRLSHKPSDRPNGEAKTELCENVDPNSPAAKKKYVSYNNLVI

mGlu8 = mGlu8 (Homo sapiens, UniProt O00222); assay: Selectivity panel, mGlu8 Ca2+ assay; format: cell-based
[4] = Brain and plasma kinetics in rat after a single dose; format: in vivo, male Sprague Dawley rat
mGlu2 receptor [5] = biological target: T1, mGlu2 receptor; assay: [35S]GTPγS binding assay, PAM mode; format: biochemical
[6] = male, Sprague Dawley, brain, sc, 10 mg/kg
[7] = male, Sprague Dawley, plasma, sc, 10 mg/kg
[8] = male, Sprague Dawley, plasma, sc, 10 mg/kg, pH 3
[9] = male, Sprague Dawley, brain, po, 10 mg/kg
[10] = male, Sprague Dawley, plasma, po, 10 mg/kg
[11] = male, Sprague Dawley, brain/plasma, sc, 10 mg/kg

For `CCCCn1ccn2c(-c3ccc4c(ccn4-c4cccnc4)c3)c(C)nc2c1=O` [Compound 3i], the EC50 (mGlu2 receptor [1]) was 0.229 µM, the Emax (mGlu2 receptor [1]) was 44% and the “HLM (%), percentage of compound metabolized” value (from here on “HLM (%), percentage”) [2] was 35%. The “RLM (%), percentage of compound metabolized” value (shortened to “RLM (%), percentage”) [3] was 47%.

For `CCCCn1cnc2c(-c3ccc(OCC4CC4)c(Cl)c3)c(C)nn2c1=O` [Compound 4d, 3-Butyl-8-[3-chloro-4-(cyclopropylmethoxy)phenyl]-7-methyl-pyrazolo[1,5-a][1,3,5]triazin-4-one], the “HLM (%), percentage” value [2] was 0% and the “RLM (%), percentage” value [3] was 60%.

With `CCCCn1ccn2c(-c3ccc(OCC4CC4)c(Cl)c3)nnc2c1=O` [Compound 4a, 7-Butyl-3-[3-chloro-4-(cyclopropylmethoxy)phenyl]-[1,2,4]triazolo[4,3-a]pyrazin-8-one] the “HLM (%), percentage” value [2] was 2% and the “RLM (%), percentage” value [3] was 45%.

For `CCCCn1ncn2c(-c3ccc(OCC4CC4)c(Cl)c3)cnc2c1=O` [Compound 4c, 7-Butyl-3-[3-chloro-4-(cyclopropylmethoxy)phenyl]imidazo[1,2-d][1,2,4]triazin-8-one], the “HLM (%), percentage” value [2] was 4% and the “RLM (%), percentage” value [3] was 21%.

In the case of `CCCCn1cnn2c(-c3ccc(OCC4CC4)c(Cl)c3)cnc2c1=O` [Compound 4b, 3-Butyl-7-[3-chloro-4-(cyclopropylmethoxy)phenyl]imidazo[2,1-f][1,2,4]triazin-4-one], the “HLM (%), percentage” value [2] is reported as 1% and the “RLM (%), percentage” value [3] is reported as 25%.

In the case of `CCCCn1ccn2c(-c3ccc(OCC4CC4)c(Cl)c3)c(C)nc2c1=O` [Compound 3e], the “HLM (%), percentage” value [2] is reported as 20%, the “RLM (%), percentage” value [3] is reported as 49% and the EC50 (mGlu1) is reported as > 30 µM. The IC50 (mGlu1) was > 30 µM, the Emax (mGlu1; read-out: mGlu1 agonism Emax) was 4% and the Emax (mGlu1; read-out: mGlu1 antagonism Emax) was 18%. For the same compound, the IC50 (mGlu3) was > 30 µM, the EC50 (mGlu3; mGlu3 PAM EC50, Ca2+ read-out) was 14.3 µM and the EC50 (mGlu3; mGlu3 agonism EC50, Ca2+ read-out) was > 30 µM. It also gave an Emax (mGlu3; read-out: mGlu3 PAM Emax) of 63%, an Emax (mGlu3; read-out: mGlu3 agonism Emax) of 2% and an Emax (mGlu3; read-out: mGlu3 antagonism Emax) of 15%. For the same compound, the EC50 (mGlu4) was > 25 µM, the IC50 (mGlu4) was 17 µM and the Emax (mGlu4; read-out: mGlu4 agonism Emax) was 5%. The Emax (mGlu4; read-out: mGlu4 antagonism Emax) was 100%, the EC50 (mGlu5) was > 30 µM and the IC50 (mGlu5) was > 30 µM. The Emax (mGlu5; read-out: mGlu5 PAM Emax) was 0%, the EC50 (mGlu5; read-out: mGlu5 agonism EC50, Ca2+ read-out) was > 30 µM and the Emax (mGlu5; read-out: mGlu5 agonism Emax) was 0%. For the same compound, the Emax (mGlu5; read-out: mGlu5 antagonism Emax) was 7%, the EC50 (mGlu6) was > 30 µM and the IC50 (mGlu6) was 26.5 µM. The Emax (mGlu6; read-out: mGlu6 agonism Emax) was 1%, the Emax (mGlu6; read-out: mGlu6 antagonism Emax) was 53% and the EC50 (mGlu7) was > 25 µM. For the same compound, the IC50 (mGlu7) was 8.32 µM, the Emax (mGlu7; read-out: mGlu7 PAM Emax) was 5% and the EC50 (mGlu7; read-out: mGlu7 agonism EC50, Ca2+ read-out) was > 25 µM. For the same compound, the Emax (mGlu7; read-out: mGlu7 agonism Emax) was 1%, the Emax (mGlu7; read-out: mGlu7 antagonism Emax) was 27% and the EC50 (mGlu8) was > 25 µM. The IC50 (mGlu8) was > 25 µM, the EC50 (mGlu8; read-out: mGlu8 agonism EC50, Ca2+ read-out) was > 25 µM and the Emax (mGlu8; read-out: mGlu8 agonism Emax) was -4%. The Emax (mGlu8; read-out: mGlu8 antagonism Emax) was 16%, the concentration at 1 h [4, 6] was 2540 ng/g and the concentration at 2 h [4, 6] was 2860 ng/g. It also gave a concentration at 4 h [4, 6] of 835 ng/g, a concentration at 2 h [4, 7] of 1390 ng/mL and a concentration at 4 h [4, 7] of 526 ng/mL. For the same compound, the concentration at 1 h [4, 8] was 1420 ng/mL.

With `CCCCn1ccn2c(-c3ccc(Oc4ccccc4)cc3)c(C)nc2c1=O` [Compound 3j] the EC50 (mGlu2 receptor [1]) was 0.151 µM, the Emax (mGlu2 receptor [1]) was 48 ± 2% and the “HLM (%), percentage” value [2] was 2%. For the same compound, the “RLM (%), percentage” value [3] was 86%, the “brain level 4 h” value ([4]; 10 mg/kg p.o., 4 h) was “BQL ^d” and the concentration at 1 h [4, 9] was 104 ng/g. For the same compound, the concentration at 2 h [4, 9] was 92 ng/g, the Kp at 2 h ([4]; male, Sprague Dawley, brain/plasma, po, 10 mg/kg) was 0.5 and the concentration at 1 h [4, 10] was 263 ng/mL. The concentration at 2 h [4, 10] was 192 ng/mL and the concentration at 4 h [4, 10] was 14 ng/mL.

In the case of `CCCCn1ccn2c(-c3ccc(OCC4CC4)c(Cl)c3)nc(C)c2c1=O` [Compound 4e, 7-Butyl-3-[3-chloro-4-(cyclopropylmethoxy)phenyl]-1-methyl-imidazo[1,5-a]pyrazin-8-one], the “fold decrease in mGlu2 PAM potency vs 3e” value (mGlu2 receptor [5]) is reported as ~10 fold, the EC50 (mGlu2 receptor [1]) is reported as > 50.1 µM and the Emax (mGlu2 receptor [1]) is reported as 12%. For the same compound, the “HLM (%), percentage” value [2] was 31% and the “RLM (%), percentage” value [3] was 74%.

In the case of `CCCCn1ccn2c(-c3ccc(NCc4ccc(OC)nc4)cc3)c(C)nc2c1=O` [Compound 3d], the EC50 (mGlu2 receptor [1]) is reported as 0.571 µM, the Emax (mGlu2 receptor [1]) is reported as 47 ± 1% and the “HLM (%), percentage” value [2] is reported as 59%. The “RLM (%), percentage” value [3] was 36% and the Kp at […] [4, 11] was 0.3.

In the case of `CCCCn1ccn2c(CN3CCC(c4ccccc4)CC3)c(C)nc2c1=O` [Compound 3a], the “HLM (%), percentage” value [2] is reported as 20% and the “RLM (%), percentage” value [3] is reported as 58%.

With `CCCCn1ccn2c(-c3ccc(N4CCNCC4)c(Cl)c3)c(C)nc2c1=O` [Compound 3g] the EC50 (mGlu2 receptor [1]) was 0.989 µM, the Emax (mGlu2 receptor [1]) was 36 ± 4% and the “HLM (%), percentage” value [2] was 0%. For the same compound, the “RLM (%), percentage” value [3] was 17%.

With `CCCCn1ccn2c(-c3ccc(Oc4ccc(C)nc4C)c(F)c3)c(C)nc2c1=O` [Compound 3c] the EC50 (mGlu2 receptor [1]) was 1.82 µM, the Emax (mGlu2 receptor [1]) was 54% and the “HLM (%), percentage” value [2] was 24%. For the same compound, the “RLM (%), percentage” value [3] was 56%, the concentration at 1 h [4, 6] was 446 ng/g and the Kp at 1 h [4, 11] was 0.2. It also gave a concentration at 1 h [4, 8] of 1820 ng/mL.
